In US9200008B2 (ASKA PHARMACEUTICAL CO., LTD., priority 2010, dated 2015):

system: Human prostate cancer cell lines (PC-3 cells); test: Measurement of cell death-inducing activity (Test Example 1); type: cell-based; conditions: PC-3, 48 h, 48 hours after addition, tested at 10, 1, 0.1, 0.025 and 0.00625 μmol/L, qualitative evaluation of 10 fields, read-out: Concentration showing the cell death-inducing activity (cell death-inducing rate not less than 40%)
In short: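 PC-3 cells seeded at 1×10^5 cells/well and grown 48 h at 37 °C, 5% CO2, then exposed to compound at 10, 1, 0.1, 0.025 and 0.00625 μmol/L (DMSO control) for a further 48 h. Activity was called where cell death-inducing rate was not less than 40%.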

SMILES | minimal effective concentration [µM]
COc1ccc(/C=N/NC(=O)c2sc(-c3ccc(Cl)cc3OC)nc2C)cc1O [Example 23-74] | 0.1
COc1cc(Cl)ccc1-c1nc(C)c(C(=O)N/N=C/c2ccc(O)cc2)s1 [Example 23-75] | 1
COc1cc(Cl)ccc1-c1nc(C)c(C(=O)N/N=C/c2ccc(O)c(C)c2)s1 [Example 23-76] | 1
COc1cc(Cl)ccc1-c1nc(C)c(C(=O)N/N=C/c2ccc(O)c(O)c2)s1 [Example 23-77] | 1
COc1ccc(/C=N/NC(=O)c2sc(-c3ccc(Cl)cc3OC)nc2C)cc1OC [Example 23-78] | 0.1
COc1ccc(/C=N/NC(=O)c2sc(-c3ccc(Cl)cc3OC)nc2C)cc1 [Example 23-79] | 0.1
COc1cccc(/C=N/NC(=O)c2sc(-c3ccc(Cl)cc3OC)nc2C)c1 [Example 23-80] | 1
COc1cc(/C=N/NC(=O)c2sc(-c3ccc(Cl)cc3OC)nc2C)ccc1O [Example 23-81] | 10
COc1ccc(/C=N/NC(=O)c2sc(-c3ccc(Cl)cc3OC)nc2C)cc1C [Example 23-82] | 0.1
COc1cc(Cl)ccc1-c1nc(C)c(C(=O)N/N=C/c2ccc3c(c2)CCO3)s1 [Example 23-83] | 0.1
COc1cc(Cl)ccc1-c1nc(C)c(C(=O)N/N=C/c2cc(C)c(O)c(C)c2)s1 [Example 23-84] | 0.1
COc1ccc(/C=N/NC(=O)c2sc(-c3ccc(Cl)cc3OC)nc2C)cn1 [Example 23-85] | 1
COc1ccc(/C=N/NC(=O)c2sc(-c3ccccc3OC)nc2C)c(O)c1 [Example 23-86] | 10
COc1ccccc1-c1nc(C)c(C(=O)N/N=C/c2ccc(N(C)C)cc2)s1 [Example 23-88] | 0.1
COc1ccccc1-c1nc(C)c(C(=O)N/N=C/c2ccc(N3CCOCC3)cc2)s1 [Example 23-89] | 1
COc1ccccc1-c1nc(C)c(C(=O)N/N=C/c2ccc3[nH]ccc3c2)s1 [Example 23-90] | 0.1
COc1ccccc1-c1nc(C)c(C(=O)N/N=C/c2ccc3cc[nH]c3c2)s1 [Example 23-91] | 0.1
COc1ccccc1-c1nc(C)c(C(=O)N/N=C/c2ccc3c(ccn3C)c2)s1 [Example 23-92] | 0.025
COc1ccccc1-c1nc(C)c(C(=O)N/N=C/c2ccc3ccn(C)c3c2)s1 [Example 23-93] | 0.1
COc1cc(Cl)ccc1-c1nc(C)c(C(=O)N/N=C/c2cccc3[nH]ccc23)s1 [Example 23-94] | 1
COc1cc(Cl)ccc1-c1nc(C)c(C(=O)N/N=C/c2cccc3c2ccn3C)s1 [Example 23-95] | 0.1
COc1ccccc1-c1nc(C)c(C(=O)N/N=C/c2ccc3ncccc3c2)s1 [Example 23-97] | 0.1
COc1ccccc1-c1nc(C)c(C(=O)N/N=C/c2ccc3c(c2)OCCN3C)s1 [Example 23-98] | 0.1
CCc1nc(-c2ccc(Cl)cc2)sc1C(=O)N/N=C/c1ccc(OC)c(O)c1 [Example 23-100] | 1

SMILES | minimal effective concentration [µM]
COc1ccc(/C=N/NC(=O)c2sc(-c3ccc(Cl)cc3)nc2C2CC2)cc1O [Example 23-101] | 10
CCCc1nc(-c2ccc(Cl)cc2)sc1C(=O)N/N=C/c1ccc(OC)c(O)c1 [Example 23-102] | 10
COc1ccc(-c2nc(C)c(C(=O)N/N=C/c3ccc(OC)c(O)c3)s2)cc1 [Example 23-103] | 10
COc1ccc(-c2nc(C)c(C(=O)N/N=C/c3cc(C)c(O)c(C)c3)s2)cc1 [Example 23-104] | 1
CCCCCCOc1ccc(/C=N/NC(=O)c2sc(-c3ccc(Cl)cc3)nc2C)cc1O [Example 23-105] | 10
CCc1nc(-c2ccc(Cl)cc2)sc1C(=O)N/N=C/c1cc(C)c(O)c(C)c1 [Example 23-106] | 1
CCCc1nc(-c2ccc(Cl)cc2)sc1C(=O)N/N=C/c1cc(C)c(O)c(C)c1 [Example 23-107] | 10
CCc1nc(-c2ccc(Cl)cc2)sc1C(=O)N/N=C/c1ccc(O)c(C)c1 [Example 23-108] | 10
Cc1nc(-c2ccc(Cl)cc2)sc1C(=O)N/N=C/c1ccc(O)c2ccccc12 [Example 23-110] | 1
COc1ccc(-c2nc(C)c(C(=O)N/N=C/c3ccc(O)c4ccccc34)s2)cc1 [Example 23-113] | 10
Cc1nc(-c2ccc(Cl)cc2)sc1C(=O)N/N=C/c1ccc(OC(F)F)c(O)c1 [Example 23-115] | 1
Cc1nc(-c2ccccc2Cl)sc1C(=O)N/N=C/c1ccc(OC(F)F)c(O)c1 [Example 23-116] | 1
Cc1cccc(-c2nc(C)c(C(=O)N/N=C/c3ccc(OC(F)F)c(O)c3)s2)c1C [Example 23-117] | 1
Cc1nc(-c2ccccc2C(F)(F)F)sc1C(=O)N/N=C/c1ccc(OC(F)F)c(O)c1 [Example 23-118] | 1
Cc1cccnc1-c1nc(C)c(C(=O)N/N=C/c2cc(C)c(O)c(C)c2)s1 [Example 23-119] | 10
COc1ccccc1-c1nc(C)c(C(=O)N/N=C/c2cc(C)c(O)c(C)c2)s1 [Example 23-120] | 0.1
Cc1ccc(-c2nc(C)c(C(=O)N/N=C/c3cc(C)c(O)c(C)c3)s2)c(C)c1 [Example 23-122] | 0.1
Cc1cc(Cl)ccc1-c1nc(C)c(C(=O)N/N=C/c2cc(C)c(O)c(C)c2)s1 [Example 23-123] | 0.1
Cc1ccccc1-c1ncc(C(=O)N/N=C/c2cc(C)c(O)c(C)c2)s1 [Example 23-124] | 0.1
COc1ccc(/C=N/NC(=O)c2sc(-c3cccc(Cl)c3C)nc2C)cc1O [Example 23-125] | 1
COc1ccc(/C=N/NC(=O)c2sc(-c3cc(C)ccc3C)nc2C)cc1O [Example 23-126] | 1
Cc1ccc(C)c(-c2nc(C)c(C(=O)N/N=C/c3cc(C)c(O)c(C)c3)s2)c1 [Example 23-127] | 1
COc1ccc(/C=N/NC(=O)c2sc(C3CCCCC3)nc2C)cc1O [Example 23-128] | 1
Cc1cc(/C=N/NC(=O)c2sc(C3CCCCC3)nc2C)cc(C)c1O [Example 23-129] | 10

SMILES | minimal effective concentration [µM]
COc1ccc(/C=N/NC(=O)c2sc(-c3cccc(OC)c3C)nc2C)cc1O [Example 23-130] | 1
COc1cccc(-c2nc(C)c(C(=O)N/N=C/c3cc(C)c(O)c(C)c3)s2)c1C [Example 23-131] | 1
COc1ccc(/C=N/NC(=O)c2sc(C)nc2C)cc1O [Example 23-132] | 10
Cc1nc(C)c(C(=O)N/N=C/c2cc(C)c(O)c(C)c2)s1 [Example 23-133] | 10
COc1ccc(/C=N/NC(=O)c2sc(-c3sc(C)nc3C)nc2C)cc1O [Example 23-134] | 1
COc1ccc(/C=N/NC(=O)c2sc(-c3cnccc3C)nc2C)cc1O [Example 23-135] | 1
Cc1ccncc1-c1nc(C)c(C(=O)N/N=C/c2cc(C)c(O)c(C)c2)s1 [Example 23-136] | 1
COc1ccc(/C=N/NC(=O)c2sc(-c3scnc3C)nc2C)cc1O [Example 23-137] | 1
COc1ccc(/C=N/NC(=O)c2sc(-c3ncccc3Cl)nc2C)cc1O [Example 23-139] | 1
COc1ccc(/C=N/NC(=O)c2sc(-c3ccc(Cl)cc3)nc2C)cc1B(O)O [Example 23-140] | 1
Cc1cc(/C=N/NC(=O)c2cnc(-c3ccccc3Cl)s2)cc(C)c1O [Example 23-143] | 1
CCCOc1ccccc1-c1nc(C)c(C(=O)N/N=C/c2ccc(OC)cc2)s1 [Example 23-149] | 0.1
Cc1nc(-c2ccc(Cl)cc2)sc1C(=O)N/N=C/c1ccc2c(c1)CCO2 [Example 23-152] | 10
COc1ccccc1-c1nc(C)c(C(=O)N/N=C/c2ccc3c(c2)CCO3)s1 [Example 23-153] | 0.1
COc1ccc(/C=N/NC(=O)c2sc(-c3cccc4c3OCCO4)nc2C)cc1O [Example 23-154] | 10
COc1ccccc1-c1nc(C)c(C(=O)N/N=C/c2ccc3occc3c2)s1 [Example 23-159] | 0.1
COc1ccc(/C=N/NC(=O)c2sc(-c3ccccc3OC)nc2C)cc1B(O)O [Example 23-160] | 0.1
Cc1nc(-c2ccc(Cl)cc2)sc1C(=O)N/N=C/c1ccc2occc2c1 [Example 23-161] | 1
COc1ccc(-c2nc(-c3ccccc3C)sc2C(=O)N/N=C/c2cc(C)c(O)c(C)c2)cc1 [Example 23-162] | 1
COc1ccc2c(c1)CC/C2=N\NC(=O)c1sc(-c2ccc(Cl)cc2OC)nc1C [Example 23-165] | 1
COc1ccc(/C=N/NC(=O)c2cc(-c3ccc(Cl)cc3)oc2C)cc1O [Example 23-166, 5-(4-Chlorophenyl)-2-methylfuran-3-carboxylic acid [1-(3-hydroxy-4-methoxyphenyl)methylidene]hydrazide] | 1
Cc1cc(/C=N/NC(=O)c2cc(-c3ccc(Cl)cc3)oc2C)cc(C)c1O [Example 23-167, 5-(4-Chlorophenyl)-2-methylfuran-3-carboxylic acid [1-(4-hydroxy-3,5-dimethylphenyl)methylidene]hydrazide] | 1
